Assay results taken from patent publication US10995068B2, “Synthetic sphingolipid-like molecules, drugs, methods of their synthesis and methods of treatment” (The Regents of the University of California, priority 2015, dated 2021).

How the values were obtained:
[1] = tested on: PC3 prostate cancer cells; experiment: Cell viability by vital dye exclusion and flow cytometry in PC3; format: cell-based, human; settings: vital dye exclusion (DAPI) and flow cytometry, 72 h
Description: Thus, to determine whether analogues in accordance with embodiments of the invention are cytotoxic, studies were conducted using vital dye exclusion and flow cytometry (Table 2).
(§1) Viability assays: Cell Titer Glo assays (Cell Titer Glo Luminescent Cell Viability Assay kit, cat #G7571, Promega Corporation) are performed in clear bottom 96-well black cell culture plates (cat #655090, Greiner Bio-One, NC, USA). After plating at 1,000 cells/well in volume of 100 μl, cells are left undisturbed for at least 24 h before drug addition. After 72 h, cells are prepared for analysis by adding 10 μl of 0.1% Triton-X100 in PBS with shaking for 1 min at room temperature (RT). Cell Titer-Glo cell lysis reagent (20 μl) is then added followed by 1 min of shaking and a 10 min incubation in the dark at RT. Luminescence is detected using an IVIS imaging system (IVIS Lumina II, Perkin Elmer, USA). […] IC50s are determined using GraphPad Prism (GraphPad Software, Inc, La Jolla, Calif.). SupB-15 viability was determined by flow cytometry. Cell Titer Glo assays were performed with the other cell lines.

[2] = tested on: Breast (MDA-MB-231) cancer cell line; experiment: IC50 in cancer cell lines (Table 3), breast; format: cell-based, human; settings: Mean ± SEM, n ≥ 3
Description: (§2) Having observed a suitable potency of some embodiments of the invention, including, at least with compounds 3-6, 14 in prostate cancer cell lines, other cancer cell lines were tested with these compounds. […] Compounds that were active in prostate cancer cell lines also killed BCR-Abl-positive leukemia cells with similar potency to FTY720.
(§3) Cell culture studies: Sup-B15 cells are maintained at 2-3 million/mL in RPMI 1640 (Mediatech) supplemented with 10% fetal calf serum (FCS, Sigma-Aldrich), 10 mM Hepes (Mediatech), 55 μM β-mercaptoethanol (Sigma-Aldrich), 2 mM L-glutamine (Mediatech), and antibiotics. All adherent cells are maintained at 70-80% confluence. Cell are cultured in the following media: PC3 & A549, Ham's F12K (Corning Cell Gro) supplemented with 10% FCS and antibiotics; DU145 cells, MEM (Corning Cell Gro) supplemented with 10% FCS, 1 mM sodium pyruvate (Mediatech), and antibiotics; SW620 & MDA-MB-231, DMEM (Corning Cell Gro) with 10% FCS, 1 mM sodium pyruvate (Mediatech), and antibiotics; Panc-1 cells, DMEM (Corning Cell Gro) supplemented with 10% FCS and antibiotics. All of the above cell lines are available from the ATCC.
as §1

[3] = tested on: PC3 prostate cancer cells; experiment: Cell Titer Glo proliferation assay in PC3; format: cell-based, human; settings: Cell Titer Glo, 72 h; Mean ± SEM, n ≥ 3; read-out: IC50 values in prostate cancer cell lines, PC3
Description: (§4) Previously presented compounds 1-4 (FIG. 23), compounds 5-8 (FIG. 28), and control compound FTY720 (FIG. 2) were used to treat the well-established PC3 and DU145 prostate cancer lines (FIG. 29 and Table 1). A Cell Titer Glo assay was performed to measure proliferation of the cancer lines.
as §3, §1

S1P receptor 2 = molecular target: T1, S1P receptor 2 (Homo sapiens, UniProt O95136); experiment: S1P receptor activation in CHO cells, S1P2; format: cell-based; settings: CHO cells over-expressing human S1P2
T1 construct: expressed in transfected cells
T1 sequence (O95136 whole entry): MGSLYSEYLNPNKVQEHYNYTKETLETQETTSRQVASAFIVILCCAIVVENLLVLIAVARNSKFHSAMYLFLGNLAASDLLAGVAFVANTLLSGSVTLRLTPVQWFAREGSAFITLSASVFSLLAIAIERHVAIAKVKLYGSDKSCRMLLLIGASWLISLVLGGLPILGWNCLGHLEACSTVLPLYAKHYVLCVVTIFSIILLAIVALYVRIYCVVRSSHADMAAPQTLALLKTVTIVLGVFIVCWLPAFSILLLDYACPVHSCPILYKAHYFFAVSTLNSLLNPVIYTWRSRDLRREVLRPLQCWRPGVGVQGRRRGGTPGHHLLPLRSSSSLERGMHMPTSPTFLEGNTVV
Source text: (§5) Phosphorylation may have effects on S1P receptor activity that could cause bradycardia. Bradycardia, the dose-limiting toxicity that prevents the use of FTY720 in cancer patients, stems from FTY720-P's actions on S1P receptors 1 and 3. (Camm, J., et al. (2014) Am. Heart J. 168, 632-644; Cohen, J. A., Chun, J. (2011) Ann. Neurol. 69, 759-777; Sanna, M. G., et al. (2004) J. Biol. Chem. 279, 13839-13848; the disclosures of which are incorporated herein by reference). Phosphorylation by sphingosine kinase may make compounds competent to activate S1P receptors. FTY720, for example, when phosphorylated is known to activate S1P receptors 1 and 3. Because compound 5 could be phosphorylated, the activity of compound 5 and its phosphate 5-P (FIG. 28) on S1P receptors was evaluated (FIG. 32).
(§6) 51P1-5 activation: Chinese hamster ovary (CHO) cells stably over-expressing the different human 51P receptor subtypes are used. S1P1, S1P4 and S1P5 overexpressing CHO cells are cultured in medium containing alpha-MEM supplemented with 10% FBS, 50 μg/ml gentamycin and 0.5 mg/ml G418. S1P2 and S1P3 overexpressing CHO cells are cultured in RPMI containing 10% FBS, 50 μg/ml gentamycin and 0.5 mg/ml G418. Prior to stimulation, cells are rendered serum-free for 24 h. Stimulation is carried out for 10 min in serum-free DMEM containing 0.1 mg/ml of fatty-acid free BSA in the absence or presence of the various compounds or 51P. Protein lysates are prepared using a buffer containing (50 mM Tris pH 7.4, 150 mM NaCl, 10% glycerol, 1% Triton X-100, 2 mM EDTA, 2 mM EGTA, 40 mM β-glycerophosphate, 50 mM sodium fluoride, 10 mM sodium pyrophosphate, 2 mM dithiothreitol, 0.2 mM sodium orthovanadate). Cells are homogenized by one 5 sec burst in a MSE Ultrasonic Disintegrator, centrifuged and taken for protein determination. Equal amounts of protein are separated by SDS-PAGE (10% polyacrylamide gel), transferred to nitrocellulose membranes and subjected to Western blot analysis. Bands were stained using IRDye® secondary antibodies and visualized by the LICOR Odyssey® Fc Imaging system. Antibodies against phospho-Thr202/Tyr204-p42/p44-MAPK and phospho-Ser PKC substrate are from Cell Signaling, Frankfurt am Main, Germany. Polyclonal antisera against total p42 and total p44 were generated and characterized as previously described. (Huwiler, A.; Pfeilschifter, J. Br. J. Pharmacol. 1994, 113, 1455-1463; disclosure of which is incorporated herein by reference).

S1P receptor 3 = molecular target: T2, S1P receptor 3 (Homo sapiens, UniProt Q99500); experiment: S1P receptor activation in CHO cells, S1P3; format: cell-based; settings: CHO cells over-expressing human S1P3
T2 construct: expressed in transfected cells
T2 sequence (Q99500 whole entry): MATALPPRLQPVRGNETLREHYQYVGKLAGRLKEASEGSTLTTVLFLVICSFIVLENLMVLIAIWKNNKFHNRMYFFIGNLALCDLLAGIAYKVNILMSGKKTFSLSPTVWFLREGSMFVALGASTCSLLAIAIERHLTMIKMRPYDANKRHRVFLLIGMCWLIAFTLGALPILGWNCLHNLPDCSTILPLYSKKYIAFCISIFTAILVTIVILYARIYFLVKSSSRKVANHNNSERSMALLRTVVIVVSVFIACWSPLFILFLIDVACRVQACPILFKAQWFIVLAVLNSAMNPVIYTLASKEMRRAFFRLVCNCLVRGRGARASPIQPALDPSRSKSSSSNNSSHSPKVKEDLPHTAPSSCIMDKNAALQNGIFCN
Source text: as §5, §6

[4] = tested on: Lung (A-549) cancer cell line; experiment: IC50 in cancer cell lines (Table 3), lung; format: cell-based, human; settings: Mean ± SEM, n ≥ 3
Description: as §2, §3, §1

[5] = tested on: Colon (SW-620) cancer cell line; experiment: IC50 in cancer cell lines (Table 3), colon; format: cell-based, human; settings: Mean ± SEM, n ≥ 3
Description: as §2, §3, §1

S1P receptor 1 = molecular target: T3, S1P receptor 1 (Homo sapiens, UniProt P21453); experiment: S1P receptor activation in CHO cells, S1P1; format: cell-based; settings: CHO cells over-expressing human S1P1, 10 min stimulation, Western blot
T3 construct: expressed in transfected cells
T3 sequence (P21453 whole entry): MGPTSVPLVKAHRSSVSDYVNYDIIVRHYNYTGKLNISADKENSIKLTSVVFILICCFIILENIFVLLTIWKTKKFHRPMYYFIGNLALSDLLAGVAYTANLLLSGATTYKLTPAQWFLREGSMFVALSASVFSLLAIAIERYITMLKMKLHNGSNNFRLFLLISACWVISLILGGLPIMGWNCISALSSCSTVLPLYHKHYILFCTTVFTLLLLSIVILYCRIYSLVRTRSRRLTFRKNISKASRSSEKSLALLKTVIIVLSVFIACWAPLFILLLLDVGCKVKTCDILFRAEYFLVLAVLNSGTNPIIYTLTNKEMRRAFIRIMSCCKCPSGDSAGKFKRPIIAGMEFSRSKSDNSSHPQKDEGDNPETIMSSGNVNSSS
Source text: as §5, §6

[6] = tested on: DU145 prostate cancer cells; experiment: Cell Titer Glo proliferation assay in DU145; format: cell-based, human; settings: 72 h, Mean ± SEM, n ≥ 3, read-out: IC50 values in prostate cancer cell lines, DU145
Description: as §4, §3, §1

[7] = tested on: Pancreas (PANC-1) cancer cell line; experiment: IC50 in cancer cell lines (Table 3), pancreas; format: cell-based, human; settings: Mean ± SEM, n ≥ 3
Description: as §2, §3, §1

Leukemia (SupB-15) cells = experiment: IC50 in cancer cell lines (Table 3), leukemia; format: cell-based, human; settings: flow cytometry; Mean ± SEM, n ≥ 3
Description: as §2, §3, §1

S1P receptor 5 = molecular target: T4, S1P receptor 5 (Homo sapiens, UniProt Q9H228); experiment: S1P receptor activation in CHO cells, S1P5; format: cell-based; settings: CHO cells over-expressing human S1P5
T4 construct: expressed in transfected cells
T4 sequence (Q9H228 whole entry): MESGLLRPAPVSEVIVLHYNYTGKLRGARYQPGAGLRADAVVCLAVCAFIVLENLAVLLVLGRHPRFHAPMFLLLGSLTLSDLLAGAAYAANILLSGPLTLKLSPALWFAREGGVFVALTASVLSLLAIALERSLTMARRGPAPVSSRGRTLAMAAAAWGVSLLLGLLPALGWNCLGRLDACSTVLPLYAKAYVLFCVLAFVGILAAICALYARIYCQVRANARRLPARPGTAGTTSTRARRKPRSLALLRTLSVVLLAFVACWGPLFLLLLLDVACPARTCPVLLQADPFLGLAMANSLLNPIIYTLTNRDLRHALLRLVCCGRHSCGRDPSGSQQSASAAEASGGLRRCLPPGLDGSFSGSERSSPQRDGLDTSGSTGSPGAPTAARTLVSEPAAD
Source text: as §5, §6

S1P receptor 4 = molecular target: T5, S1P receptor 4 (Homo sapiens, UniProt O95977); experiment: S1P receptor activation in CHO cells, S1P4; format: cell-based; settings: CHO cells over-expressing human S1P4
T5 construct: expressed in transfected cells
T5 sequence (O95977 1-384): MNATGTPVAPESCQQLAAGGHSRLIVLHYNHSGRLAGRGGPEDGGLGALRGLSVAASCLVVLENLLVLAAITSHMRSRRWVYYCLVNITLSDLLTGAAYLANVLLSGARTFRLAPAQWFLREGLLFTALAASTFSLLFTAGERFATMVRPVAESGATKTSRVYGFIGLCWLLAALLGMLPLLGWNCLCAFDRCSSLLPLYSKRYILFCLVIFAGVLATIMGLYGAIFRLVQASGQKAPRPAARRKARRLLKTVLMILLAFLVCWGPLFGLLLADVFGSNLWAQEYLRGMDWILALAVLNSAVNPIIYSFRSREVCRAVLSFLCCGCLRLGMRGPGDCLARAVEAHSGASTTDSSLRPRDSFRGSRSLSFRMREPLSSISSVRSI
Source text: as §5, §6

CD98 (4F2hc, SLC3A2) = experiment: Surface CD98 nutrient transporter down-regulation by flow cytometry; format: cell-based, murine; settings: FL5.12 cells
Source text: (§7) In an exemplified study, nutrient transporter down-regulation was monitored by quantifying surface levels of the amino acid transporter-associated protein, CD98, by flow cytometry. Vacuolation was scored in a range from 0 to […], as determined by a vacuolation assay described in greater detail in the Materials and Methods section below.
(§8) Cell culture studies: FL5.12 cells (murine hematopoetic cells originally obtained from Craig Thompson, Memorial Sloan Kettering Cancer Center) were maintained at 0.1-0.5 million/ml in RPMI 1640 (Mediatech) supplemented with 10% fetal calf serum (FCS, Sigma-Aldrich), 10 mM Hepes (Mediatech), 500 pg/ml recombinant IL-3 (cat #575502, Biolegend), 55 μM β-mercaptoethanol (Sigma-Aldrich), 2 mM L-glutamine (Mediatech), and antibiotics. Cells were screened for Mycoplasma every 3 months using the Look-Out Mycoplasma PCR Detection kit (cat #MP0035, Sigma).
Nutrient transporter expression: Surface CD98 (4F2hc, SLC3A2) expression was measured at 3 h using phycoerythrin (PE)-conjugated rat anti-mouse CD98 antibody (Biolegend, cat #128208); analysis was restricted to viable cells. PE conjugated Rat IgG2a, k (cat #400508, Biolegend) was used as an isotype control. For staining, 200,000 cells were pelleted, re-suspended in 100 μl FACS block (PBS with 10% FCS and 0.05% NaN3) containing 0.25 μL anti-CD98 antibody, incubated on ice for 30 min, washed twice with 1 ml FACS wash (PBS containing 2% FCS and 0.05% NaN3), and analyzed on a BD LSR II flow cytometer. Data was processed with FlowJo software (Treestar).

FL5.12 cells = experiment: Vacuolation assay; format: cell-based, murine; design: key to Vacuolation score: 0-100 score: (3×%cat3+2×%cat2+1×%cat1)/3; cells graded 0-3 for vacuoles; settings: FL5.12 cells
Description: as §7
Vacuolation assay: Cells were evaluated at 100× using brightfield microscopy and a Nikon TE2000-S fluorescence microscope equipped with DIC filters. Vacuolation was quantified after a 3 h incubation period in 2.5 μM compound except where otherwise indicated. To calculate a vacuolation score, vacuolation severity in at least 15 individual cells/experiment was assessed qualitatively. Scores were assigned to individual cells as follows: 0=no vacuoles, 1=very small vacuoles, 2=multiple well-defined vacuoles, 3=multiple large vacuoles. To calculate the vacuolation score associated with a compound, the following formula was used: vacuolation score=[(3×% cells in category 3)+(2×% cells in category 2)+(1×% cells in category 1)]/3.
The score is divided by 3 so that a compound with 100% of its cells in category 3 would have a vacuolation score of 100. Three independent experiments were conducted and the vacuolation scores averaged to generate a mean+/−SEM. All cells were scored by one lab member after confirming that a blinded individual scored 5 compounds with similar results.

[8] = tested on: murine hematopoietic cell line FL5.12; experiment: Viability of FL5.12 cells by vital dye exclusion; format: cell-based; settings: FL5.12 cells, 48 h, vital dye exclusion; n ≥3; read-out: IC50 (μM) [95% CI]
Description: as §8
IC50 values were calculated using GraphPad Prism (GraphPad Software, Inc, La Jolla, Calif.).

PP2A = PP2A phosphatase activity; format: biochemical, murine; settings: PP2A immunoprecipitated from FL5.12 cell lysates, phosphopeptide dephosphorylation
Source text: Furthermore, many embodiments of the invention are directed to azacyclic constrained sphingolipid-like molecules inducing internalization of nutrient transporters via a mechanism that activates PP2A. […] Thus, activation of PP2A is very peculiar to certain sphingolipid structures. Activation of PP2A by FTY720 and SH-BC-893 also stimulated vacuolation, and as the PP2A inhibitors calyculin A and SV40 small t antigen, each blocked this effect (FIG. 59C). Of note, YM201636-induced vacuolation was unaffected by PP2A inhibition (FIG. 60B). In addition, inhibiting PP2A restored PIKfyve to the proper location within vacuoles in cells treated with FTY720 or SH-BC-893 (FIG. 57D).
PP2A phosphatase activity. PP2A activity was measured using a PP2A immunoprecipitation phosphatase assay kit (EMD Millipore). Briefly, the catalytic subunit of PP2A was immunoprecipitated from FL5.12 cell lysates with 4 μg anti-PP2A, C subunit. After four washes, the activity of immunoprecipitated PP2A was assessed by dephosphorylation of the phosphopeptide according to the manufacturer's instructions in the presence or absence of C2-ceramide, dihydro-C2-ceramide, FTY720, SH-BC-893, or calyculinA.

SMILES	IC50 [1] [µM]	IC50 [2] [µM]	IC50 [3] [µM]	activation of S1P receptor 2 (S1P receptor 2)	activation of S1P receptor 3 (S1P receptor 3)	IC50 [4] [µM]	IC50 [5] [µM]	activation of S1P receptor 1 (S1P receptor 1)	IC50 [6] [µM]	IC50 [7] [µM]	IC50 (Leukemia (SupB-15) cells) [µM]	activation of S1P receptor 5 (S1P receptor 5)	activation of S1P receptor 4 (S1P receptor 4)	concentration required to cause similar transporter loss (CD98 (4F2hc, SLC3A2); CD98 loss) [µM]	% CD98 down-regulation (CD98 (4F2hc, SLC3A2); surface CD98 at 3 h, flow cytometry, mean ± SEM, n ≥3) [%]	Vacuolation score (FL5.12 cells; 3 h in 2.5 μM compound except where otherwise indicated, mean ± SEM, n ≥3)	vacuolation (in words) (FL5.12 cells; at any dose / highest dose tested)	IC50 [8] [µM]	PP2A activation (PP2A)
CCCCCCCCc1ccc([C@@H]2CCN[C@H]2COC)cc1.Cl [Compound 14]	4.6 ± 0.4	4	1.9 ± 0.3	not able to activate	not able to activate	7.8 ± 1.8	2.7 ± 0.2	not able to activate	5.6 ± 0.1	4.8 ± 0.6	7.5 ± 0.4	not able to activate	not able to activate						
CCCCCCCCCCCCC/C=C/[C@@H](O)[C@H](CO)NC(C)=O [Compound 109, C2-ceramide, reference compound]														50	47 ± 3	0	did not cause vacuolation	33	activating PP2A
